We go through 35 compounds from publication PMC6522912, “Evaluation of the published kinase inhibitor set to identify multiple inhibitors of bacterial ATP-dependent mur ligases” (Journal of Enzyme Inhibition and Medicinal Chemistry, 2019).

Structures are written as SMILES. Where two headings read alike, the source gives them in different places.

The target of one assay is E. coli MurD (Escherichia coli, UniProt P14900). Put plainly: biochemical. The conditions noted are these: for remaining activity at 100 µM: 0.25 h, Table S1, PKIS screening, read-out: RA [%] at 100 µM MurD. The procedure:
(§1) Inhibition of the Mur ligases was determined using the malachite green assay, with slight modifications.
(§2) In all cases, the final concentration of DMSO was 5% (v/v). After incubation for 15 min at 37 °C, the enzyme reaction was terminated by addition of 100 µM Biomol green reagent, and the absorbance was measured at 650 nm after 5 min. All of the experiments were run in duplicate. Residual activities were calculated with respect to control assays without the tested compounds, but with the 5% DMSO carrier.
(§3) The published kinase inhibitor set compounds were evaluated for inhibition of MurC, D and F ligases from E. coli using the Malachite green assay, which detects orthophosphate generated during enzymatic reactions. To avoid non-specific inhibition due to aggregate formation, all of the compounds were tested in the presence of detergent (0.005% Triton-X114). The data are presented as the residual activities of these Mur ligases in the presence of 100 µM of each test compound (Supporting Information Table S1).

The next assay deals with E. coli MurC (Escherichia coli, UniProt P17952). Put plainly: Malachite green inhibition assay, MurC. The following applies: for remaining activity at 100 µM: 0.25 h. The assay is classed as biochemical. The procedure:
as §1, §2
as §3, with “S1). […] Additionally, regarding the data of profiled compounds in large panels of human kinase assays[41]” for “S1).”

The target of the next assay is E. coli MurF (Escherichia coli, UniProt P11880). Put plainly: biochemical. The following applies: for remaining activity at 100 µM: 0.25 h, read-out: RA [%] at 100 µM MurF; for remaining activity at 100 µM / RA [%] at 100 µM MurF: Table S1, PKIS screening. The protocol:
as §1, §2
as §3, with “S1). […] Additionally, regarding the data of profiled compounds in large panels of human kinase assays[41]” for “S1).”

Setting [1] is: Table S1, PKIS screening, read-out: RA [%] at 100 µM MurC.
Where [2] appears, read: Table S3, aza stilbene compounds.
The mark [3] stands for this setting: read-out: RA [%] at 100 µM MurC, Table S1, PKIS screening.

Sequence of E. coli MurF (P11880 whole entry): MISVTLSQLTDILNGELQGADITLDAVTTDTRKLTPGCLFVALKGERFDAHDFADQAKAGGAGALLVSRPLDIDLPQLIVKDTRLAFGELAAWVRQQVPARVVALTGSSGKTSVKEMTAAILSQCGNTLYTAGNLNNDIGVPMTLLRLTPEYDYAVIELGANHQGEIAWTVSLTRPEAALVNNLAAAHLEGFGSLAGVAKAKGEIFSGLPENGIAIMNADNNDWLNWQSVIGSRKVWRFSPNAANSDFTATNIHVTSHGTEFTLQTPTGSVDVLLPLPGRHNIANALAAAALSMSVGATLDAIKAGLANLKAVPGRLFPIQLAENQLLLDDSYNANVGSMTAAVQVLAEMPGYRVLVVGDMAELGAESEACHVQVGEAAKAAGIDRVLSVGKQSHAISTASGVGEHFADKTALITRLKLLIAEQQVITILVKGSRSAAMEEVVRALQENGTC
Sequence of E. coli MurD (P14900 whole entry): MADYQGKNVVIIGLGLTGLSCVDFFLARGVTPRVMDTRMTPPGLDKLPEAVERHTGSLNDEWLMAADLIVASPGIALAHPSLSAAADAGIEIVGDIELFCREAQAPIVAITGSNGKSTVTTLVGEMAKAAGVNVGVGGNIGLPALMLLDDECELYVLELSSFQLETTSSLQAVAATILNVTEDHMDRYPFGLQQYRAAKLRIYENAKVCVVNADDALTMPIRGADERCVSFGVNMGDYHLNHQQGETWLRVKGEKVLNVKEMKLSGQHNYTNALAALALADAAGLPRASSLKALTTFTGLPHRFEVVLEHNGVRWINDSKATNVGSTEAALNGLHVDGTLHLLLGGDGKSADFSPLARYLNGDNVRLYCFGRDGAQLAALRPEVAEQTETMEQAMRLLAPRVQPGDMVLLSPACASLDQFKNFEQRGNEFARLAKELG
Sequence of E. coli MurC (P17952 whole entry): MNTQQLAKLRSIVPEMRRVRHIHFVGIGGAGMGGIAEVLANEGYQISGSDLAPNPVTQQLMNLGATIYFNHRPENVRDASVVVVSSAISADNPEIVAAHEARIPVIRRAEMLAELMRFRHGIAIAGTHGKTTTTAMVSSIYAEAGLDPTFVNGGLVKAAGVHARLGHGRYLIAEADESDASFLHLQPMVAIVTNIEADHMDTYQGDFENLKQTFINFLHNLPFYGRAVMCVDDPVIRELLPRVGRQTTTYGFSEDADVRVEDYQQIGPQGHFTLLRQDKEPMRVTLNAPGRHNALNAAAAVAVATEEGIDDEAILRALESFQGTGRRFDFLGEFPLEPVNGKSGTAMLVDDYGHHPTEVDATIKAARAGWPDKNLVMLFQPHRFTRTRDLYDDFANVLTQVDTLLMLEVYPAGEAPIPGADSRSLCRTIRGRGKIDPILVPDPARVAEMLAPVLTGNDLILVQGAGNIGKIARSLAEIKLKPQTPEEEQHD

Take `CCn1cc(-c2ccnc3[nH]ccc23)c(-c2cccc(NC(=O)Nc3ccc(OCc4ccccc4)cc3)c2)n1` [GSK718429A]: the remaining activity at 100 µM on E. coli MurD stood at 83%; on E. coli MurC (setting [1]), 94%; at E. coli MurF, 99%.

On to `COc1ccc(-c2coc3ncnc(N)c23)cc1` [GW642125X], for which the remaining activity at 100 µM at E. coli MurD came out at 83%; at E. coli MurC (setting [1]) it was 100%; at E. coli MurF, 85%.

Take `C#Cc1cccc(Nc2ncnc3ccc(OCCCCNCCS(C)(=O)=O)cc23)c1` [GW680191X]: the remaining activity at 100 µM is 93% at E. coli MurD, 75% on E. coli MurC (setting [1]) and 102% on E. coli MurF.

For the compound `COc1cc2c(cc1Nc1nc(N3CCc4ccccc43)c3cc[nH]c3n1)N(C(=O)CN(C)C)CC2` [GSK2186269A], the figures for the remaining activity at 100 µM at E. coli MurD, on E. coli MurC (setting [1]) and on E. coli MurF were 100%, 23% and 26%, respectively.

As for `Cc1cc(-c2ccccn2)cc(C)c1C=Cc1cncc(-c2nn[nH]n2)c1` [Compound 6], on E. coli MurD, the “RA (%) MurD” value stood at 83%. For the same compound, at E. coli MurC (setting [2]), the “RA (%) MurC” value is 59%. Besides, the “RA (%) MurF” value at E. coli MurF (setting [2]) turned out to be 76%.

On to `CC1=C(C(=O)Nc2ccc3[nH]ncc3c2)C(c2ccc(F)cc2)NC(=O)N1` (stereo not shown) [GSK180736A], for which the remaining activity at 100 µM turned out to be 79% on E. coli MurD, 80% on E. coli MurC (setting [1]) and 85% at E. coli MurF.

Regarding `COc1cc2ncnc(Nc3ccc(C)c(O)c3)c2cc1OC` [GW410563A], the remaining activity at 100 µM at E. coli MurD turned out to be 92%; on E. coli MurC (setting [1]), 60%; at E. coli MurF, 100%.

On to `CC(C)c1ccc(Nc2nccc(-c3cnn4ncccc34)n2)cc1` [GW805758X], for which the values for the remaining activity at 100 µM at E. coli MurD, at E. coli MurC (setting [1]) and on E. coli MurF were 57%, 64% and 68%, respectively.

In the case of `CNC(=O)c1ncccc1Nc1nc(Nc2cc3c(cc2OC)CCCN3C(=O)CN(C)C)nc2[nH]ccc12` [GSK2220400A], the figures for the remaining activity at 100 µM at E. coli MurD, at E. coli MurC (setting [3]) and on E. coli MurF were 84%, 69% and 81%, respectively.

Turning to `CNC(=O)c1cncc(/C=C/c2ccccc2C)c1` [GW445015X], the remaining activity at 100 µM on E. coli MurD is 91%; at E. coli MurC (setting [1]) it was 100%; at E. coli MurF it was 85%.

As to `COC(=O)Nc1nc2ccc(Sc3ccc(NC(=O)Nc4cc(C(F)(F)F)ccc4F)cc3)cc2[nH]1` [GW607049C], the remaining activity at 100 µM at E. coli MurD was 80%; at E. coli MurC (setting [1]) it was 62%; at E. coli MurF it was 91%.

Consider `CCS(=O)(=O)c1ccc(OC)c(Nc2ncc(-c3cccc(C(C)=O)c3)o2)c1` [GW621431X], for which the values for the remaining activity at 100 µM on E. coli MurD, on E. coli MurC (setting [1]) and on E. coli MurF were 93%, 68% and 73%, respectively.

As for `COc1cccc(-n2ncc3c(N/N=C/c4ccc(C)cc4)ncnc32)c1` [GW829877X], the remaining activity at 100 µM on E. coli MurD stood at 85%; on E. coli MurC (setting [1]), 70%; at E. coli MurF, 76%.

In the case of `CCn1c(-c2nonc2N)nc2ccc(F)cc21` [GW785404X], the remaining activity at 100 µM on E. coli MurD worked out at 88%; on E. coli MurC (setting [1]), 100%; on E. coli MurF, 79%.

With `COC(=O)Nc1nc2ccc(Oc3ccc(NC(=O)Nc4cccc(Cl)c4)cc3)cc2[nH]1` [GW589961A], the remaining activity at 100 µM at E. coli MurD was 81%; at E. coli MurC (setting [1]), 77%; on E. coli MurF, 83%.

Take `CCc1ccc(Oc2nccc(-c3c(-c4ccc(F)cc4)ncn3C3CCNCC3)n2)cc1` [SB-242719]: the remaining activity at 100 µM at E. coli MurD is 87%; at E. coli MurC (setting [3]), 51%; on E. coli MurF it was 80%.

For the compound `Fc1ccc(-c2nc3n(c2-c2ccncc2)CCS3)cc1` [SKF-86002-A2], the “RA [%] at 100 µM MurD” value on E. coli MurD is reported as 91. Moreover, the “RA [%] at 100 µM MurC” value at E. coli MurC (Table S1, PKIS screening) amounted to 75%. In addition, at E. coli MurF, the “RA [%] at 100 µM MurF” value amounted to 97%.

With `CCn1c(-c2nonc2N)nc2c(C#CC(C)(C)O)ncc(OC3CCNCC3)c21` [GSK619487A], the remaining activity at 100 µM at E. coli MurD came out at 86%; at E. coli MurC (setting [1]), 77%; on E. coli MurF, 100%.

Take `CS(=O)(=O)Nc1ccc(N/C=C2\C(=O)Nc3ccccc32)cc1` [GW278681X]: the remaining activity at 100 µM on E. coli MurD was 89%; at E. coli MurC (setting [1]), 71%; on E. coli MurF, 77%.

As to `COc1cc(C=NNc2ncnc3c2cnn3Cc2ccccc2)ccc1O` [GW643971X], the remaining activity at 100 µM is 78% at E. coli MurD, 56% on E. coli MurC (setting [1]) and 25% on E. coli MurF.

In the case of `FC(F)(F)c1cccc(Nc2nccc(-c3cnn4nc(-c5ccccc5)ccc34)n2)c1` [GW819077X], the remaining activity at 100 µM was determined as 63% on E. coli MurD, 50% at E. coli MurC (setting [1]) and 58% at E. coli MurF.

In the case of `FC(F)(F)c1ccc(-c2nn3ncccc3c2-c2ccnc(Nc3ccc4c(c3)OCCO4)n2)cc1` [GW828525X], the results for the remaining activity at 100 µM at E. coli MurD, on E. coli MurC (setting [3]) and on E. coli MurF were 90%, 21% and 47%, respectively.

For the compound `CCn1c(-c2nonc2N)nc2ccccc21` [SB-693162], the remaining activity at 100 µM was 78% at E. coli MurC (setting [1]) and 100% on E. coli MurF.

For `COc1cccc(-n2ncc3c(N/N=C/c4ccncc4)ncnc32)c1` [GW784752X], the remaining activity at 100 µM was determined as 76% at E. coli MurC (setting [1]) and 93% at E. coli MurF.

Turning to `OCc1ccc(-c2nc(-c3ccccn3)c(-c3ccc4c(c3)OCO4)[nH]2)cc1` [SB-431533], the remaining activity at 100 µM at E. coli MurC (setting [1]) was 95%; on E. coli MurF, 75%.

Consider `NC(=O)c1cccc(Nc2nccc(Nc3cccc(F)c3)n2)c1` [GW759710A], for which the remaining activity at 100 µM at E. coli MurC (setting [1]) and at E. coli MurF was 100% each time.

For the compound `Cn1c(-c2nonc2N)nc2cnccc21` [SB-736290], the results for the remaining activity at 100 µM on E. coli MurC (setting [1]) and on E. coli MurF were 71% and 90%, respectively.

In the case of `Clc1ccc(CNc2nccc(-c3cnn4ncccc34)n2)cc1` [GW781673X], the remaining activity at 100 µM was found to be 79% on E. coli MurC (setting [1]) and 63% at E. coli MurF.

Turning to `Cc1cccc2c1NC(=O)C2=NNc1ccc(S(N)(=O)=O)cc1` [GW282536X], the remaining activity at 100 µM on E. coli MurC (setting [1]) is 93%; at E. coli MurF it was 27%.

Turning to `c1ccc(Oc2ccc(Nc3ncc(-c4ccccc4)o3)cc2)cc1` [GW641155A], the remaining activity at 100 µM is 66% at E. coli MurC (setting [1]) and 86% at E. coli MurF.

For the compound `COc1cc(Nc2ncc3c(C)nc(-c4cccc(C(F)(F)F)c4)n3n2)cc(OC)c1OC` [GW837331X], the remaining activity at 100 µM on E. coli MurC (setting [1]) amounted to 65%; at E. coli MurF it was 89%.

In the case of `CC(=O)NCc1cccc(C#Cc2cncnc2Nc2ccc(OCc3cccc(F)c3)c(Cl)c2)c1` [GW807930X], the remaining activity at 100 µM on E. coli MurC (setting [1]) worked out at 66%; on E. coli MurF, 69%.

As for `Cc1cc(O)cc(Nc2ccnc3cc(-c4ccccn4)ccc23)c1` [GSK3206866A], the “RA [%] at 100 µM MurC” value at E. coli MurC (Table S1, PKIS screening) is reported as 76%. Also, the “RA [%] at 100 µM MurF” value at E. coli MurF amounted to 29%.

`COc1cc2ncn(-c3cc(O[C@@H](C)c4ccccc4Cl)c(C(N)=O)s3)c2cc1OC` [GSK237700A]: on E. coli MurF, the remaining activity at 100 µM is 75%.

With `COc1cccc(-c2c[nH]c3c(N/N=C/c4ccncc4)ncnc23)c1` [GW814408X], the remaining activity at 100 µM is 98% at E. coli MurC (setting [1]) and 87% at E. coli MurF.
